Publication PMC7527709 (Redox Biology, 2020)

Key:
Kv1.3 [1] = target: T1, Kv1.3 (Homo sapiens, UniProt P22001); assay: whole-cell patch clamp, Kv1.[…] stably expressed in CHO cells; type: cell-based
Kv1.3 [2] = target: T1, Kv1.3; assay: whole-cell patch clamp of Kv1.[…] current in Jurkat lymphocytes, […] compound; type: cell-based; conditions: read-out: % inhibition at 1 μM

T1 sequence (P22001 whole entry): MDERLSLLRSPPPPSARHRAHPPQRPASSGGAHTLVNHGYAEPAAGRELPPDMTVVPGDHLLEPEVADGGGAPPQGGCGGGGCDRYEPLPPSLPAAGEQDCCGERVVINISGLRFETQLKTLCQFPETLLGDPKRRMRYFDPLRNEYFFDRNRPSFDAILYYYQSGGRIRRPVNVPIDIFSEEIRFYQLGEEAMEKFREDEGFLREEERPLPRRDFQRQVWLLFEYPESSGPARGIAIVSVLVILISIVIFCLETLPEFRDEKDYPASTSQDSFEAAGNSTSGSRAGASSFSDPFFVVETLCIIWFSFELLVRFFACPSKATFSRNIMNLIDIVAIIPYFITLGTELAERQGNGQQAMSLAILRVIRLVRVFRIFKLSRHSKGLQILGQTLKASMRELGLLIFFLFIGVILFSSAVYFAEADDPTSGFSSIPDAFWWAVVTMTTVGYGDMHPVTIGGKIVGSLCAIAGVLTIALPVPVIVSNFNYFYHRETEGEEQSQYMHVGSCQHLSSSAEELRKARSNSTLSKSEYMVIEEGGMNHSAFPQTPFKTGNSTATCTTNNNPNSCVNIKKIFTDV

Structure (SMILES) | EC50 (Kv1.3 [1]) [nM] | inhibition at 1 µM (Kv1.3 [2]) [%]
COCCOCCOCCOCCOCCOCCOc1ccc(OCCCCOc2c3ccoc3cc3oc(=O)ccc23)cc1 [PAP-1-MHEG, 4-(4-(4-(2,5,8,11,14,17-hexaoxanonadecan-19-yloxy)phenoxy)butoxy)-7H-furo[3,2-g]chromen-7-one] | 350 ± 30 | –
CCCCCOc1ccc(OCCOCCOCCOCCOCCOCCOC)cc1 [POP-MHEG, 19-(4-(pentyloxy)phenoxy)-2,5,8,11,14,17-hexaoxanonadecane] | – | ~70
